This is an account of results in PubChem BioAssay (NCI).

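In this assay, cells in 96-well plates receive the compound at five concentrations for 48 hours. Endpoints are linearly interpolated between the surrounding concentrations. At the GI50, growth is halved. TGI denotes the concentration required for complete inhibition of growth.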 Where only a bound is given, the exact number is not on record here.

Common to all, as to test: DTP human tumour cell line panel, 48 h
Experiment [1] has as its system OVCAR-3 ovarian.
Experiment [2] deals with A498 renal.
For experiment [3], the system named is RXF 393 renal.
Experiment [4] has as its system HT29 colon.
For experiment [5], the system named is OVCAR-5 ovarian.
Experiment [6] concerns HCT-15 colon.
Experiment [7] concerns HS 578T breast.
The test system of experiment [8] is OVCAR-4 ovarian.
For experiment [9], the system named is NCI-H226 lung.
Experiment [10] concerns U251 CNS.

What is called GI50 is the concentration that inhibits growth by half. As usually defined, the TGI is the concentration giving total growth inhibition. Lower therefore signals greater sensitivity of the cells. For `CC(=O)c1cc2c(c3ccsc13)-c1ccccc1CC2`, the GI50 in [1] is 25.4 µM; in experiment [2], 17.2 µM; in experiment [3] it was 28.6 µM; in experiment [4] it was 58.4 µM; in experiment [5], 39.4 µM; in experiment [6], 22.3 µM. For the same compound, the GI50 in [7] is 2.17 µM; in experiment [8] it was over 100 µM; in [9] it was 38 µM; in [10], 34.7 µM. Besides, the TGI in experiment [1] is over 100 µM; in [2] it was 67.8 µM; in experiment [3], over 100 µM; in experiment [4] it was over 100 µM; in experiment [5], over 100 µM; in experiment [6], over 100 µM. In addition, the concentration for total growth inhibition (TGI) in experiment [7] was 44.6 µM; in experiment [8], over 100 µM; in experiment [9], over 100 µM; in experiment [10], over 100 µM.

Turning to `O=C(Nc1ccc(Cl)cc1)c1cc(S(=O)(=O)Nc2nnc(-c3ccccc3)c(-c3ccccc3)n2)c(SCc2ccccc2)cc1Cl`, the GI50 was 17.1 µM in [1]; 20.4 µM in [2]; 0.896 µM in [3]; 28.3 µM in experiment [4]; 36.4 µM in experiment [5]; 32.8 µM in experiment [6]. Also, the GI50 was 20.6 µM in [7], 49.8 µM in experiment [8], 27.7 µM in [9] and 20.7 µM in experiment [10]. Further, the TGI is 41.2 µM in experiment [1]; 77.9 µM in experiment [2]; over 57.7 µM in [3]; over 82 µM in experiment [4]; over 58 µM in [5]; over 64.2 µM in experiment [6]. The concentration for total growth inhibition (TGI) in experiment [7] was 71.1 µM; in experiment [8], over 85.4 µM; in experiment [9] it was over 70.2 µM; in experiment [10], 51.3 µM.

Turning to `CC(C)(C)OC(=O)CN1CCc2c(sc3ncnc(N/N=C/c4cccc5ccccc45)c23)C1`, the GI50 in experiment [1] was 1 µM; in experiment [2] it was 3.78 µM; in experiment [3], 1.56 µM; in experiment [4], 3.47 µM; in [5] it was 3.34 µM; in experiment [6], 2.2 µM. Moreover, the GI50 in experiment [7] is 1.42 µM; in experiment [8], 2.58 µM; in experiment [9], 4.28 µM; in experiment [10], 3.18 µM. For the same compound, the TGI in [1] worked out at 3.92 µM; in experiment [2], 11.9 µM; in experiment [3], 6.93 µM; in experiment [4] it was 12.3 µM; in experiment [5], 8.41 µM; in experiment [6], 9.57 µM. Moreover, the TGI in experiment [7] came out at 16 µM; in experiment [8], 14.1 µM; in experiment [9] it was 12.8 µM; in experiment [10], 14.6 µM.

For the compound `COC(=O)OCc1ccc2c(c1)C(=O)c1c-2n(CCCBr)c(=O)c2cc([N+](=O)[O-])ccc12`, the GI50 in experiment [1] is over 100 µM; in experiment [2], 57.6 µM; in experiment [3], 0.16 µM; in experiment [4], over 100 µM; in experiment [5] it was over 100 µM; in experiment [6] it was over 100 µM. The GI50 in [7] is 31 µM; in [8], over 100 µM; in [9], over 100 µM; in [10], 35.3 µM. For the same compound, the TGI was over 100 µM in experiment [1]; over 100 µM in experiment [2]; 8.45 µM in [3]; over 100 µM in experiment [4]; over 100 µM in experiment [5]; over 100 µM in experiment [6]. The TGI in [7], in [8], in experiment [9] and in experiment [10] was over 100 µM each time.

For `O=c1c2ccccc2nc(-c2ccccc2)n1O`, the concentration for total growth inhibition (TGI) in experiment [1], in experiment [2], in experiment [3], in [4], in experiment [5] and in experiment [6] was over 100 µM in each case. In addition, the TGI in [7], in [8], in experiment [9] and in experiment [10] was over 100 µM in each case.

With `COc1ccc(/C=C/C(=O)c2cc3c(N)c(C(=O)Nc4ccccc4C)sc3nc2C)cc1`, the GI50 was 0.168 µM in experiment [1]; 0.197 µM in experiment [2]; 0.14 µM in experiment [3]; 0.487 µM in experiment [4]; 1.39 µM in experiment [5]; 0.52 µM in [6]. For the same compound, the GI50 was 0.188 µM in experiment [7], 1.42 µM in experiment [8], 0.619 µM in experiment [9] and 1.4 µM in [10]. In addition, the total growth inhibition concentration (TGI) was 0.955 µM in experiment [1]; 2.64 µM in [2]; 0.423 µM in experiment [3]; over 50 µM in [4]; over 50 µM in experiment [5]; over 50 µM in [6]. The concentration for total growth inhibition (TGI) in [7] was over 50 µM; in experiment [8], over 50 µM; in [9] it was 12.2 µM; in [10], over 50 µM.

As to `COC(=O)C1(C2CC/C(C)=C/CC/C(C)=C/CC[C@@]3(C)O[C@@H]3C2)CC1` (stereo not given in full), the GI50 in experiment [1] was 62.9 µM; in experiment [2], over 100 µM; in experiment [3] it was over 38.2 µM; in [4] it was 68.1 µM; in experiment [5] it was over 100 µM; in [6] it was over 66.7 µM. The GI50 in [7] was over 91.2 µM; in [8], over 100 µM; in experiment [9], over 72.2 µM; in experiment [10], 39.1 µM. The TGI in [1], in experiment [2], in experiment [3], in experiment [4], in experiment [5] and in experiment [6] was over 100 µM throughout. Besides, the total growth inhibition concentration (TGI) in experiment [7], in experiment [8], in [9] and in experiment [10] was over 100 µM throughout.
